Reference: publication PMC10127606, “Salmonella Invasion Is Controlled by Competition among Intestinal Chemical Signals” (mBio, 2023)
Residue numbers refer to the chain shown, from its start. Read-outs that look alike come from different tables or passages of the source.

Tests used:
[1] = system: invasion gene hilA expression; assay: hilA-luxCDABE transcriptional reporter luciferase assay; format: cell-based; conditions: no formic acid preincubation; 500 nM c2-HDA, 40 μM oleic acid, 10 mM propionic acid
Protocol: Salmonella strains carrying luxCDABE reporter plasmids were grown overnight in 5 mL LB broth with appropriate antibiotics. These were subcultured (1:100) in M9 minimal medium with 0.2% glucose and antibiotics for 16 h. […] These were incubated for 3 h at 37°C in an incubator without aeration. Dimethyl sulfoxide (DMSO) or different concentrations of fatty acids were added to the reaction, and replicate aliquots were introduced into the BioTek Synergy H1 microplate reader. Luminescence and OD600 were recorded every half-hour for 24 h. Data were analyzed in GraphPad Prism. For every treatment, the area under the curve (AUC) was calculated. DMSO was normalized to 100%, and other reactions were calculated accordingly.

HilD [2] = target: T1, HilD (Salmonella typhimurium, UniProt P0CL08); assay: biochemical; format: binding; set-up: made in house; host or cells: E. coli BL21(DE3), pET15b
T1 sequence (P0CL08 1-309): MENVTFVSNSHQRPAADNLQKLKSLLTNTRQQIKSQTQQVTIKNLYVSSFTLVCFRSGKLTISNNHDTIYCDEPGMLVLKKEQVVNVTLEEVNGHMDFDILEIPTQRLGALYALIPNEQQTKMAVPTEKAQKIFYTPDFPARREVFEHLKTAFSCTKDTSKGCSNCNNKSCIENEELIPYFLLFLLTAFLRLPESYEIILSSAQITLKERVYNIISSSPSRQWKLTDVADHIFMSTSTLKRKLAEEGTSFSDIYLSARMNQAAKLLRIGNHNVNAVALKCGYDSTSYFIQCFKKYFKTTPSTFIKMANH
Protocol: (§1) Assays were performed as previously described in detail in Chowdhury et al. ([15], [16]). Briefly, 96-well polystyrene plates coated with various concentrations of fatty acids in coating buffer (0.05 M sodium carbonate-bicarbonate, pH 9.3) were incubated overnight at 4°C. The wells were washed three times with PBS, followed by the addition of 200 μL blocking buffer (1% Ficoll 400 in PBS). […] The wells were washed, incubated with a 1:1,000 dilution of anti-His tag antibody, and incubated at room temperature for an hour. After washing, the wells were incubated with a 1:5,000 dilution of anti-mouse secondary antibody for an hour. Finally, the wells were washed three times with PBS-T (PBS plus 0.1% Tween 20), and 100 μL OPD (o-phenylenediamine) substrate was added. After color development, the reaction was ended with 1 N sulfuric acid and read spectrophotometrically at 490 nm. Data were analyzed in GraphPad Prism. Nonlinear regression was plotted, and one-site total binding was performed to calculate Kd values.
hilD alleles were cloned into pET15b(+), expressed, and purified as described in detail previously ([15]). Briefly, the pET15b-6XHis-hilD or pET15b-6XHis-hilD^Q290A or pET15b-6XHis-hilD^K293A plasmid was transformed into E. coli BL21(DE3) for expression. Transformants were induced with 5 mM IPTG (isopropyl β-D-1-thiogalactopyranoside) for 4 h. Cultures were centrifuged, lysed, treated with TALON beads, and applied to protein purification columns. Bound protein was eluted and confirmed by SDS-PAGE. Following confirmation, eluted samples were dialyzed overnight. The final protein concentration and quality after dialysis were assessed by Bradford estimation and SDS-PAGE.

[3] = system: invasion gene sipC expression; assay: sipC::lacZY reporter β-galactosidase assay; format: cell-based; conditions: no formic acid preincubation; 10 μM c2-HDA, 40 μM oleic acid
Protocol: The β-galactosidase assay was performed using the method of Miller, as previously described in detail ([39]). Miller units were calculated using the following equation: Miller units = (OD420 × 1,000)/(OD600 × t × v), where t is the time (minutes) the reaction was allowed to continue before adding the stop solution, v is the volume of culture (mL) assayed, and OD420 and OD600 are the densities of the cultures at 420 and 600 nm, respectively. All reactions were performed in quadruplicates. Data were analyzed in Excel and plotted in GraphPad Prism.

HilD^Q290A = target: T2, HilD^Q290A (Salmonella typhimurium, UniProt P0CL08, Q290A); assay: ELISA binding of fatty acids to mutant HilD^Q290A
T2 construct: made in house; host or cells: E. coli BL21(DE3), pET15b
T2 sequence (P0CL08 1-309 Q290A): T1 sequence (P0CL08 1-309) with Q290A
Protocol: as §1
(§2) hilD alleles were cloned into pET15b(+), expressed, and purified as described in detail previously ([15]). Briefly, the pET15b-6XHis-hilD or pET15b-6XHis-hilD^Q290A or pET15b-6XHis-hilD^K293A plasmid was transformed into E. coli BL21(DE3) for expression. […] The final protein concentration and quality after dialysis were assessed by Bradford estimation and SDS-PAGE.

HilD-hilA complex = target: T3, HilD-hilA complex (Salmonella typhimurium, UniProt P0CL08); assay: EMSA of HilD binding to hilA promoter DNA; conditions: c2-HDA 20 μM, t2-HDA 40 μM, oleic acid 50 μM; no formic acid
T3 construct: made in house; host or cells: E. coli BL21(DE3), pET15b
T3 sequence (P0CL08 1-309): T1 sequence (P0CL08 1-309)
Protocol: Assays were performed as previously described ([15], [16]). […] Various concentrations of the fatty acids (c2-HDA, 20 μM; t2-HDA, 40 μM; or oleic acid, 50 μM) or control solvents were added, and the reaction was incubated at room temperature for 1 h. Dye solution (10 mM Tris, 1 mM EDTA, 50% vol/vol glycerol, 0.001% wt/vol bromophenol blue) was added to a final concentration of 1×, and samples were separated on 7% acrylamide gels. DNA was stained using SYBR Safe and visualized in a Bio-Rad GelDoc imaging system.

HilD [4] = target: T1, HilD; format: cell-based; set-up: The stability of HilD in Salmonella carrying a chromosomal tetRA-hilD-3×FLAG tag; expressed in transfected cells; host or cells: Salmonella Typhimurium strain CA2446 (tetRA-hilD-3XFLAG attλ:pDX1::hilA'-lacZ)
Protocol: Assays were performed as previously described ([22]). Salmonella strains carrying a chromosomal tetracycline-inducible hilD with a C-terminal 3×FLAG tag and a hilA::lacZY fusion (for invasion gene expression assessment) were grown overnight in LB and then diluted 1:100 into LB buffered with 100 mM MOPS (pH 6.7) with 2.5 μg/mL tetracycline. […] After 1 h of incubation at 37°C with aeration, samples were collected to measure hilA::lacZY expression in a β-galactosidase assay. Individual cultures were then equilibrated to an OD600 of 1. New protein production was halted by adding an antibiotic combination (100 μg/mL rifampin, 200 μg/mL streptomycin, and 50 μg/mL spectinomycin). These cultures were incubated at 37°C with aeration, and 200-μL aliquots were collected every 30 min for 4 h. Samples were lysed in 5× Laemmli buffer, boiled, and immunoblotted with an anti-FLAG antibody to monitor HilD levels.

HilD^K293A = target: T4, HilD^K293A (Salmonella typhimurium, UniProt P0CL08, K293A); assay: ELISA binding of fatty acids to mutant HilD^K293A
T4 construct: made in house; host or cells: E. coli BL21(DE3), pET15b
T4 sequence (P0CL08 1-309 K293A): T1 sequence (P0CL08 1-309) with K293A
Protocol: as §1, §2

[5] = HilD preincubated with formic acid (500 μM), read-out: Kd
[6] = HilD without formic acid preincubation, read-out: Kd
[7] = Kd, HilD preincubated with formic acid (500 μM)
[8] = Kd, HilD without formic acid preincubation

`CCC(=O)O` [propionic acid] was tested, and the “effect on hilA expression” value [1] was “severely repressed”.
`CCCCCCCCCCCCCCCCC/C=C\C(=O)O` [c2-EA] was tested, and the Kd (HilD [2]; [5]) was 381 µM and the Kd (HilD [2]; [6]) was 96.6 µM.
In the case of `CCCCCCCCCCCCC/C=C\C(=O)O` [c2-HDA, cis-2-hexadecenoic acid], the “effect on hilA expression” value [1] is reported as “drastically reduced hilA expression”, the “effect on sipC expression” value [3] is reported as “repressed” and the Kd (HilD^Q290A) is reported as 12.6 µM. The “effect on HilD-hilA complex” value (HilD-hilA complex) was “disrupted the HilD-hilA complex”, the Kd (HilD [2]; [7]) was 82 µM and the Kd (HilD [2]; [8]) was 5.19 µM.
`CCCCCCCCCCCCC/C=C/C(=O)O` [t2-HDA] was tested, and the “effect on HilD-hilA complex” value (HilD-hilA complex) was “disrupted the HilD-hilA complex”, the Kd (HilD [2]; [5]) was 177 µM and the Kd (HilD [2]; [6]) was 15.8 µM. The HilD half-life (HilD [4]; fatty acid 20 μM after preincubation with formic acid (10 mM)) was ~ 127 min and the HilD half-life (HilD [4]; fatty acid 20 μM, no formic acid preincubation (DMSO control ~227 min)) was ~ 28 min.
With `CCCCCCCC/C=C\CCCCCCCC(=O)O` [oleic acid] the “effect on hilA expression” value [1] was “severely repressed”, the “effect on sipC expression” value [3] was “repressed” and the Kd (HilD^K293A) was 119 µM. The “effect on HilD-hilA complex” value (HilD-hilA complex) was “disrupted the HilD-hilA complex”, the Kd (HilD [2]; [7]) was 1370 µM and the Kd (HilD [2]; [8]) was 136 µM.
